Assay results reported in PubChem BioAssay AID1850 (Southern Research Specialized Biocontainment Screening …, 2009).

The molecules below were run on Salmonella Typhi PhoP-promoter GFP reporter, fluorescence, 4 h (assay: PhoP regulon inhibitors, Salmonella typhi PhoP promoter GFP reporter, confirmatory (AID 1850)).
Work on `CCCCn1c(NS(=O)(=O)c2ccc(C)cc2)c(S(=O)(=O)c2ccccc2)c2nc3ccccc3nc21` yielded an IC50 of 7.98 µM. `Cc1ccc2c(c1)c1c(n2CC(O)CN2CCC(C)CC2)CCCC1` (configuration not stated) was tested, and the IC50 was 78.3 µM. Work on `CN(C)CCCN(C(=O)CCc1ccccc1)c1nc2ccc(Br)cc2s1` yielded an IC50 of 69 µM. Molecule `CCCCCCCCCCOC(=O)Cn1c(COc2ccccc2OC)[n+](C)c2ccccc21` has an IC50 of 10.2 µM. `Cc1cc(C2CCCCC2)n(O)c(=O)c1` was tested, and the IC50 was 17.2 µM. In the case of `CC(=O)Nc1cccc(NC(=O)Nc2ccc(F)cc2F)c1`, the IC50 is reported as 40.8 µM. In the case of `Cc1ccc(C(=O)NNC(=S)NC(=O)c2ccccc2)cc1`, the IC50 is reported as 62.6 µM. Molecule `Cc1ccc(S(=O)(=O)CCC(=O)c2ccc(O)cc2O)cc1` has an IC50 of 75.7 µM. In the case of `O=C(CSc1ccccn1)N/N=C/c1c[nH]c2ccccc12`, the IC50 is reported as 117 µM. With `CC(C(=O)c1ccc(-c2ccccc2)cc1)[n+]1cccc(NC(=O)c2ccccc2)c1` (configuration not stated) the IC50 was 20.4 µM. `Fc1ccc(Nc2ccnc(Nc3ccc(F)cc3)n2)cc1` showed an IC50 of 20 µM. `Cc1c(CCOC(=O)C2C3CC4CC(C3)CC2C4)sc[n+]1CC(=O)c1ccc(Br)cc1` (configuration not stated) gave an IC50 of 34.8 µM. Molecule `OC(CNCc1ccco1)Cn1c2ccc(Br)cc2c2cc(Br)ccc21` (configuration not stated) has an IC50 of 20.8 µM. With `Cc1ccc(NC(=O)CSC(N)=O)cc1Cl` the IC50 was 10.4 µM. Work on `CO[C@H]1C=CO[C@@]2(C)Oc3c(C)c(O)c4c(O)c(c(C=NN5CCN(C)CC5)c(O)c4c3C2=O)NC(=O)C(C)=CC=C[C@H](C)[C@H](O)[C@@H](C)[C@@H](O)[C@@H](C)[C@H](OC(C)=O)[C@@H]1C` yielded an IC50 of 21.1 µM. `CNC(=S)N1CCN(c2c(F)cc3c(=O)c(C(=O)O)cn(C4CC4)c3c2OC)CC1C` (configuration not stated) was tested, and the IC50 was 7.83 µM. `O=C(N/N=C/c1cc([N+](=O)[O-])ccc1O)C1CC1` gave an IC50 of 29.5 µM. Work on `Cc1ccc(NNS(=O)(=O)c2ccc(C)cc2)cc1` yielded an IC50 of 53.7 µM. For `CN(C)C1C(=O)C(C(N)=O)=C(O)C2(O)C(=O)C3=C(O)c4c(O)cccc4C(C)(O)C3CC12` (configuration not stated), the IC50 was 3.07 µM. `O=C(CN1CC[n+]2c(-c3cccs3)csc21)c1ccc(-c2ccccc2)cc1` gave an IC50 of 26.4 µM. Molecule `c1ccc(Sc2cccc3ccccc23)c(CNC2=NCCN2)c1` has an IC50 of 68.3 µM. `CC(C)(c1ccccc1)c1ccc(OCCCN2CCNCC2)cc1` showed an IC50 of 56.2 µM. `CCn1cc(C(=O)NCCO)c(=O)c2cc(F)c(N3CCN(C)CC3)cc21` gave an IC50 of 9.31 µM. `CN(C)CCNc1oc(COc2ccc(-c3ccccc3)cc2)nc1C#N` showed an IC50 of 59.2 µM. `Clc1ccc(C(c2ccc(Cl)cc2)n2cc[n+](CC(OCc3ccc(Cl)cc3Cl)c3ccc(Cl)cc3Cl)c2)cc1` (configuration not stated) was tested, and the IC50 was 10.5 µM. Molecule `Oc1[nH]c2ccc(Br)cc2c1N=NC(=S)N1CCOCC1` has an IC50 of 36.6 µM. `C=C1c2c(Cl)ccc(O)c2C(O)=C2C(=O)[C@]3(O)C(O)=C(C(N)=O)C(=O)[C@@H](N(C)C)[C@@H]3[C@@H](O)C12` (some centres not stated) showed an IC50 of 0.8 µM. `COc1cc(CNCCO)cc(Cl)c1OCc1ccc(Cl)cc1Cl` showed an IC50 of 38 µM. `OC1CCCN(Cc2ccc3ccc4cccc5ccc2c3c45)C1` (configuration not stated) showed an IC50 of 79.3 µM. For `CCOC(=O)N1CCN(CCC(=O)c2ccc(Br)cc2)CC1`, the IC50 was 94.5 µM. Work on `O=C(Nc1cccc(Cl)c1)Nc1nccs1` yielded an IC50 of 40 µM. Molecule `CCc1cccc2c(C(=O)COC(=O)c3ccc([N+](=O)[O-])s3)c[nH]c12` has an IC50 of 18.8 µM. In the case of `CCn1cc(C(=O)O)c(=O)c2cc(F)c(N3CCN(C(=S)NC(=O)c4ccccc4)CC3)cc21`, the IC50 is reported as 18 µM. In the case of `C=CC1=C(C(=O)O)N2C(=O)[C@@H](NC(=O)/C(=N\O)c3csc(N)n3)[C@H]2SC1` (stereo in doubt), the IC50 is reported as 19.1 µM. `c1ccc(-c2nc3ccccc3[nH]2)cc1` gave an IC50 of 48 µM. Work on `CCCCOCCCNc1ncnc2c1[nH]c1ccccc12` yielded an IC50 of 71.1 µM. Work on `N=c1n(CCN2CCCCC2)c2ccccc2n1CC(O)c1ccc(Cl)c(Cl)c1` (configuration not stated) yielded an IC50 of 37.1 µM. Work on `Clc1ccc(OCCCNCc2ccccc2)c(Br)c1` yielded an IC50 of 37.6 µM. `CCCCNCCCOc1cccc(Cl)c1Cl` was tested, and the IC50 was 148 µM. Work on `NC1=NC[C@H](Cc2ccc(O)cc2)N1CCc1cccc2ccccc12` yielded an IC50 of 50.2 µM. `CC(NCC(O)COc1ccc2ccccc2c1)c1ccccc1` (configuration not stated) showed an IC50 of 79.8 µM. `CCOC(=O)C1=C(O)c2ccccc2C(=O)/C1=C\c1ccc(C)cc1` gave an IC50 of 142 µM. Molecule `CCCCCCCCCCC[N+](C)(C)CC/C=C1/c2ccccc2Sc2ccc(Cl)cc21` has an IC50 of 39 µM. For `CCS(=O)(=O)c1ccc2oc(=O)c(/C=C(\O)c3ccc(Cl)cc3)nc2c1`, the IC50 was 76.1 µM. For `CCCCC(=O)NC(=S)NNC(=O)CC`, the IC50 was 70.2 µM. `CCCCCCCCCCCCCCCC[n+]1ccc(C(N)=O)cc1` gave an IC50 of 10.5 µM. In the case of `CCC(/C=C1\Sc2ccc(OC)cc2N1CCO)=C\c1sc2ccc(OC)cc2[n+]1CCO`, the IC50 is reported as 31.8 µM. `CSc1ccc2c(c1)N(CCC1CCCCN1C)c1ccccc1S2` (configuration not stated) showed an IC50 of 74 µM. Molecule `COc1ccc(CCN2CCC(Nc3nc4ccccc4n3Cc3ccc(F)cc3)CC2)cc1` has an IC50 of 37.7 µM. `O=C(NNc1nc2ccc(F)cc2s1)c1cccc(F)c1` was tested, and the IC50 was 76.8 µM. `O=C(N/N=C\c1cccc([N+](=O)[O-])c1O)C1COc2ccccc2O1` (configuration not stated) showed an IC50 of 27.4 µM. Molecule `COc1cccc(-c2nnc(NC(=O)c3ccc(Cl)s3)o2)c1` has an IC50 of 101 µM. `Cc1ccc2sc(N(CCCN(C)C)C(=O)c3ccc(Br)s3)nc2c1C` was tested, and the IC50 was 36.8 µM. `C/C(O)=C\c1nc2ccccc2oc1=O` was tested, and the IC50 was 44.4 µM. Work on `CCCCCCCCNc1ncnc2ccccc12` yielded an IC50 of 18.7 µM. Work on `Clc1ccc(CN2CCc3c([nH]c4ccccc34)C2)cc1Cl` yielded an IC50 of 36.1 µM. Molecule `CCOC(=O)c1ccccc1-n1c(C)cc(C2N=C(N)Nc3nc4ccccc4n32)c1C` (configuration not stated) has an IC50 of 36.6 µM.
